Data: patent US9125930B2, “EGFR aptamer inhibitor for use in therapy and diagnosis” (CONSIGLIO NAZIONALE DELLE RICERCHE, priority 2010, dated 2015)

Experiments:
[1] = system: A549 cells transfected with a specific EGFR shRNA; assay: Binding on A549 cells after EGFR gene silencing; parameters: species or system human; details: [32P]-labeled aptamer at 100 nM, relative to scrambled aptamer
Method: EGFR gene silencing in NSCLC A549 cells was established by transfection of high performance short hairpin RNA (shRNA) specifically targeting EGFR (from Expression Arrest™ Human shRNA Collection, Open Biosystems, Huntsville, Ala.). Cells (3.5×10^5 cells per 6 cm plate) were grown and overlaid with the transfection mixtures containing the shRNA (6 μg) against EGFR (referred as shRNAEGFR) and Lipofectamine 2000 (Invitrogen, Carlsbad, Calif.) in Opti-MEM I reduced serum medium (Invitrogen). After 5 hours incubation, complete culture medium was added to the cells and incubation was prolonged up to 72 hs. […] For binding assays transfected cells were plated in 24 well plates after 24 hs from transfection.
Binding experiments were performed with 5′-[^32P]-labeled RNA. […]
(§1) For binding experiments on cells, 3.5×10^4 cells were plated in 24-well plates in triplicate and were incubated with CL4 42-81 aptamer the scrambled sequence used as a negative control at 100 nM concentration in 200 μl of DMEM serum free for 20 min at RT in the presence of 100 μg/ml polyinosine as a nonspecific competitor (Sigma, St. Louis, Mo.). After five washings with 500 μl DMEM, bound sequences were recovered in 300 μl of SDS 1%, and the amount of radioactivity recovered was counted.

[2] = system: epidermoid carcinoma A431 cells; assay: Binding on A431 cells; parameters: species or system human; details: high level of EGFR; 100 nM
Method: (§2) Binding experiments were performed with 5′-[^32P]-labeled RNA. For labeling 2′-F-Py RNAs were 5′-end dephosphorylated using bacterial alcaline phosphatase (Invitrogen, Carlsbad, Calif.) before [^32P]-5′-end-labeled using T4 kinase (Invitrogen) and γ-[^32P]-ATP (6×10^3 Ci/mmol, GE Healthcare Bio-Sciences, Uppsala, Sweden) according to the supplier's instructions.
as §1

[3] = molecular target: T1, soluble extracellular domain of human EGFR (EC-EGFR) (Homo sapiens, UniProt P00533); assay: Filter binding on soluble extracellular domain of EGFR
T1 construct: purchased R&D Systems
Method: as §2
(§3) The aptamers ability to bind EGFR or ErbB3 soluble extracellular domain (EC-EGFR and EC-ErbB3) was investigated by filter binding by plotting the fraction of RNA bound to the nitrocellulose filter as a function of protein concentration, using the following equation:
(§4) [formula] where Bmax is the extrapolated maximal amount of RNA:protein complex that will be bound. 1 nM of radiolabelled aptamers (CL4 42-81 aptamer or the scrambled sequence) were incubated with 1, 3.2, 10, 32, 100, 320 and 1000 nM of EC-EGFR and EC-ErbB3 (all from R&D Systems, Minneapolis, Minn.) for 15 min at 37° in phosphate-buffered saline (PBS) supplemented with 0.01% bovine serum albumin.
(§5) In order to test the binding for dimeric and monomeric proteins, 1 nM of radiolabelled aptamers (CL4 42-81 or scrambled) were incubated with 20 nM of EC-EGFR and EC-ErbB3 without or with 5 mM DTT.
(§6) After incubation, the aptamer-protein mix was passed through nitrocellulose membrane filter (Millipore Co., Bedford, Mass.) and filters were counted. […]

[4] = molecular target: T2, soluble extracellular domain of human ErbB3 (EC-ErbB3) (Homo sapiens, UniProt P21860); assay: Filter binding on soluble extracellular domain of ErbB3
T2 construct: purchased R&D Systems
T2 sequence (P21860 20-643 limits assumed): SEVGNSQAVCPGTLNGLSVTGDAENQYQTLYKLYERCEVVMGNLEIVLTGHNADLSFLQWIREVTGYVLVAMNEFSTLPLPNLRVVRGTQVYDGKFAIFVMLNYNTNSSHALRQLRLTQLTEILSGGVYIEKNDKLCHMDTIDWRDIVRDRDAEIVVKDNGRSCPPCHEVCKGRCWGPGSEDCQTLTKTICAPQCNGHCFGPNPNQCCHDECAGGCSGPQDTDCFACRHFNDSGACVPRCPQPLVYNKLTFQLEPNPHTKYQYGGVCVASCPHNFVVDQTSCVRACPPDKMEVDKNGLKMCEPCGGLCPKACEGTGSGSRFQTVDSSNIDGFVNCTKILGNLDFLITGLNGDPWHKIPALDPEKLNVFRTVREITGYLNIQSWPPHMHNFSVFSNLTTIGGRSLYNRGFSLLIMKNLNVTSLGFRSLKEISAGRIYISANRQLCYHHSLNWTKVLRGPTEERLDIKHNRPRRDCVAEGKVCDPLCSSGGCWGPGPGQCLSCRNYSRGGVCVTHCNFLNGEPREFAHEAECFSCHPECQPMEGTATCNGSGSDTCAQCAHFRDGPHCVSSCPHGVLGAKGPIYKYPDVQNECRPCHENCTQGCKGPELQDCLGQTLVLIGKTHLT
Method: as §2, §3, §4, §5, §6

STAT 3 = assay: Immunoblot of EGF-induced STAT3 phosphorylation; type: cell-based, human; details: data not shown
Method: To assess the effects of aptamers on EGFR activity, A549 cells (1.5×10^5 cells per 3.5-cm plate) were serum-starved over night, pretreated with 200 nM CL4 42-81 aptamer or the scrambled aptamer used as a negative control for 3 h and then stimulated for 30 min with 50 ng/ml EGF (R&D Systems, Minneapolis, Minn.) either alone or in presence of each aptamer. The aptamers were subjected to a short denaturation-renaturation step (85° C. for 5 min, snap-cooled on ice for 2 min, and allowed to warm up to 37° C.) before each treatment. To prepare cell extracts, cells were washed twice in ice-cold PBS, and lysed in buffer A (50 mM Tris-HCl pH 8.0 buffer containing 150 mM NaCl, 1% Nonidet P-40, 2 mg/ml aprotinin, 1 mg/ml pepstatin, 2 mg/ml leupeptin, 1 mM Na3VO4). Protein concentration was determined by the Bradford assay using bovine serum albumin as the standard. The cell lysates were subjected to SDS-PAGE. […]

A549 cells = assay: Apoptosis assay by PI staining and FACS; type: cell-based, human; parameters: dose or concentration left out as unconfirmed
Method: For apoptosis assay, DNA content analysis was performed by staining with propidium iodide (PI) and analyzing cells by flow cytometry (FACS).
[…] Cells were incubated with 2 μg/ml propidium iodide (PI, Sigma, St. Louis, Mo.) for 30 min at 4° C. and recovered. The relative proportion of cells with DNA content indicative of apoptosis (ipoploid) was determined by FACS.

In the case of “CL4 42-81: 2′-fluoropyrimidine nuclease-resistant RNA aptamer of 39 nt: 5′ GCCUUAGUAACGUGCUUUGAUGUCGAUUCGACAGGAGGC 3′ (SEQ ID No. 1) (2'-fluoro at CU, RNA at AG, backbone not given here)”, the “ability to bind to A549 cells upon decreased EGFR expression” value [1] is reported as “significantly reduced”, the “binding on A431 cells” value [2] is reported as “binds” and the Kd [3] is reported as 10 nM. For the same substance, the “affinity for EC-ErbB3, magnitude lower” value ([4]; does not bind or binds with lower affinity) was “at least 10^3”, the Kd ([4]; filter binding, EC-ErbB3, protein up to 1000 nM) was “no Kd value could be calculated” and the “EGF-induced phosphorylation of STAT 3” value (STAT 3) was “decreases”. For the same substance, the “percentage of apoptotic cells (sub-G1 peak)” value (A549 cells; A549, 24 hs) was “about 30%” and the “percentage of apoptotic cells (sub-G1 peak)” value (A549 cells; A549, 48 hs) was 40%.
